The target of one assay is T1, tau (Homo sapiens, UniProt P10636).
T1 construct: recombinant full-length tau (2N4R, as 1-441); made in house; host or cells: E. coli BL21-DE3
Description: Heparin-induced tau aggregation. Type of assay: biochemical. The source says: (§1) Referring to FIG. 3B, in some embodiments, the screening compound 150 comprises 9-hydroxy-2-(2-piperidinylethyl) ellipticinium acetate or 6H-Pyrido [4, 9-hydroxy-5,11-dimethyl-2-[2-(1-piperidinyl)ethyl]-, acetate (A9) 300. […] A9 300 may comprise a chemical formula of C24H28N3O·C2H3O2 and a molecular weight of 434.0 g/mol. Additional analysis of A9 300 was done by performing a cell uptake assay utilizing H4 neuroglioma cells. […] In some embodiments, A9 300 is effective to disrupt tau-heparin interaction when present in a higher concentration than the concentration of tau. In some embodiments, A9 300 is effective when present in about a 100-fold molar excess relative to the tau-heparin complex.

Assay [1] concerns the target T2, tau-HS interaction (heparin) (Homo sapiens, UniProt P10636).
T2 construct: recombinant full-length tau (2N4R, as 1-441); made in house; host or cells: E. coli BL21-DE3
Description: NMR probing of the tau-A9 interface. Type of assay: binding.

For assay [2], the target named is T3, His-tagged tau / biotinylated heparin interaction (Homo sapiens, UniProt P10636).
T3 construct: recombinant full-length tau (2N4R, as 1-441); made in house; host or cells: E. coli BL21-DE3
T3 sequence (P10636 1-441 isoform P10636-8): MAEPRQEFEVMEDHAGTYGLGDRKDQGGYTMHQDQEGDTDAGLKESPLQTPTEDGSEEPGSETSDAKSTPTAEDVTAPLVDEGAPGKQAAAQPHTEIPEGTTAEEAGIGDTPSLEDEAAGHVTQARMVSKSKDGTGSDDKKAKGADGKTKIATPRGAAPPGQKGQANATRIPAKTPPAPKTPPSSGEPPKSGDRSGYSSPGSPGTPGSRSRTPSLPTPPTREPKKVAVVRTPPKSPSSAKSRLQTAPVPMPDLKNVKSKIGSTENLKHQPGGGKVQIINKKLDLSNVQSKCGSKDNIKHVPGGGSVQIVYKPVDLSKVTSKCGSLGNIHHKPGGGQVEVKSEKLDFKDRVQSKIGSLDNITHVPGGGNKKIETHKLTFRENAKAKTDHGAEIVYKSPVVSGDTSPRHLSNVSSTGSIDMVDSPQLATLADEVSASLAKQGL
Description: Bead-based ALPHA assay screening for inhibitors of tau-heparin interaction. Type of assay: binding. An excerpt: In some embodiments, the detecting portion 161 is configured to measure a fluorescent emission 164 when the at least one donor bead 110 and the at least one acceptor bead 120 are brought in proximity of one another. In some embodiments, the emitting portion 163 configured to emit a beam of light 162 at a specific wavelength onto the at least one donor bead 110. In some embodiments, the at least one donor bead 110 becomes excited at the specific wavelength, which results in a light emission by the at least one acceptor bead 120. […] In some embodiments, the ability and effectiveness of the screening molecule 150 to inhibit protein-glycan interactions is determined based on the strength of the emission 164, where inhibitors decrease the strength of the emission 164. […] In some embodiments, the user interface outputs information related to the emission 164 detected by the detecting portion 161.
At 214, the results are determined, meaning that whether or not the screening compound disrupts interactions at the protein-glycan interface is determined. In some embodiments, in the case of the screening molecule 150 being determined to disrupt interactions at the protein-glycan interface, the relative strength of the disruption may also be determined. […]

The subject of assay [3] is tau uptake in H4 neuroglioma cells. Description: Cell uptake assay utilizing H4 neuroglioma cells. Type of assay: cell-based.
From the text: as §1

T2 sequence (P10636 1-441 isoform P10636-8): as above
T1 sequence (P10636 1-441 isoform P10636-8): as above

On to `CC(=O)[O-].Cc1c2cc[n+](CCN3CCCCC3)cc2c(C)c2c1[nH]c1ccc(O)cc12` [A9, 9-hydroxy-2-(2-piperidinylethyl) ellipticinium acetate], for which the “inhibition of heparin-induced tau aggregation” value on tau was “inhibit heparin-induced tau aggregation in a dose-dependent manner”. Besides, the “mechanism of disruption of tau-HS interaction” value in assay [1] (NMR) was “disrupt the tau-HS interaction by occupying the glycan”. Besides, the “region of compound that binds heparin” value in assay [1] (further analysis) was “aromatic region binds to heparin instead of its aliphatic carbons”. In addition, in assay [2] (0.1 μM His-tau, 0.1 μM biotinylated heparin, 1 h room temperature, excitation 680 nm, emission 620 nm, lower signal = stronger inhibition), the “detected fluorescent signal in screen of NCI diversity Set VI” value is “lowest detected fluorescent signal”. In addition, the “protein-glycan inhibition, dose-dependent follow-up, ranking among the six hits” value in assay [2] (varying compound concentrations) was “greatest protein-glycan inhibition”. In addition, the “inhibition of tau uptake” value in assay [3] was “inhibited tau uptake in a dose-dependent manner”.

The record behind these values is patent US20250189533A1, “BEAD-BASED ASSAY TO SCREEN FOR INHIBITOR PROTEIN-GLYCAN INTERACTIONS IN NEURODEGENERATION” (Rensselaer Polytechnic Institute, priority 2023, published 2025).
